According to patent US5480899A, “Oxazolidine derivatives and pharmaceutically acceptable salts thereof” (Taiho Pharmaceutical Co., Ltd., priority 1992, dated 1996):

Tests used:
[1] = tested on: sterol biosynthesis system (rat liver slices); assay: Effects on sterol biosynthesis in rat liver slices ([1-14C] acetic acid incorporation); assay type: cell-based, male Wistar rat; settings: 37° C., 2 hours, radioactivity of sterol fraction vs control
Experimental: (§1) Effects on sterol and fatty acid biosynthesis systems obtained from a rat liver slices
(§2) Pharmacological tests were carried out according to the procedure mentioned below, referring to the following document: Endo, A., Tsujita, Y., Kuroda, M. and Tanzawa, K., Eur. J. Biochem., 77, 31-36 (1977).
(§3) The liver was extirpated from a male Wistar rat (body weight: about 200 g) immediately after sacrifice by decapitation, and sufficiently perfused with ice-cold Krebs-Ringer bicarbonate buffer solution. The liver slices (100 mg) were added to 1 ml of Krebs-Ringer bicarbonate buffer solution containing [1-^14 C] acetic acid (2 μci/μmol) and one of test compounds adjusted to various concentrations, and the reaction was carried out at 37° C. for 2 hours in 95% O2 -5% CO2 gas mixture. After cooling the reaction mixture, 2 ml of petroleum ether was added thereto to extract the sterol fraction with shaking. The extract was concentrated and 1 ml of 1% digitonin solution was added thereto. After standing, the mixture was centrifuged. The sterol fraction obtained as the sediment was washed several times with an organic solvent and dissolved in 1 ml of acetic acid. Subsequently, radioactivity of the sterol fraction was measured. Then the concentration of the test compound (IC50) was determined at which the radioactivity was inhibited by 50% compared with the radioactivity observed in the control group wherein the test compounds were not used.

[2] = tested on: fatty acid biosynthesis system (rat liver slices); assay: Effects on fatty acid biosynthesis in rat liver slices ([1-14C] acetic acid incorporation); assay type: cell-based, male Wistar rat; settings: 37° C., 2 hours, radioactivity of fatty acid fraction vs control
Experimental: as §1, §2, §3
In a similar manner, the radioactivity of fatty acid fraction was determined which was obtained by treating, with hydrochloric acid, the lower layer of the petroleum ether mentioned in the above procedure.

[3] = tested on: serum lipid (triglyceride and cholesterol); assay: Rate of decrease in serum lipid (triglyceride and cholesterol) in rats after 14-day oral administration; assay type: in vivo, male Sprague-Dawley rats; settings: 300 mg/kg orally everyday for 14 days; 24 hours after last administration; vs control group (0.5% HPMC)
Experimental: Male Sprague-Dawley rats (body weight: about 130 g) were preliminarily bred for one week, and divided into groups, each group consisting of five rats. Each of the test compounds was suspended in a 0.5% hydroxy-propylmethylcellulose (HPMC) aqueous solution, and the suspensions were orally administered to the rats at a dose of 300 mg/kg at 9:00 a.m. everyday for 14 days. […] The blood was allowed to stand and centrifuged to obtain serum. Lipid (triglyceride and cholesterol) in the obtained serum was measured by the enzymic method using an autoanalyzer.
Pharmacological activities of the test compounds were determined as the rate of decrease (%) in serum lipid compared with the control group to which only 0.5% aqueous HPMC solution was administered.

Compound	IC50 [1] [µM]	IC50 [2] [µM]	Rate of decrease in total cholesterol in serum [3] [%]	Rate of decrease in triglyceride in serum [3] [%]
O=C(O)c1ccc(OCC2CN(c3ccc(Br)cc3F)C(=O)O2)cc1 (stereo not drawn) [Compound 100]	–	–	32.4	62.9
Cc1ccc(N2CC(COc3ccc(C(=O)O)cc3)OC2=O)cc1 (stereo not drawn) [Compound 83]	5.74	2.89	–	–
COc1ccc(N2CC(COc3ccc(C=O)cc3)OC2=O)cc1 (stereo not drawn) [Compound 1, 4-[3-(4-methoxyphenyl)-2-oxooxazolidin-5-yl]methoxybenzaldehyde]	10.2	5.6	–	–
O=C(O)CCc1ccc(OCC2CN(c3ccc(Cl)cc3)C(=O)O2)cc1 (stereo not drawn) [Compound 193]	16.4	3.8	–	–
O=C(O)c1ccc(OCC2CN(c3ccc(C(F)(F)F)cc3)C(=O)O2)cc1 (stereo not drawn) [Compound 101]	4.8	3.17	–	–
O=C(O)c1ccc(OCC2CN(c3ccc(Cl)cc3Cl)C(=O)O2)cc1 (stereo not drawn) [Compound 98]	–	–	26.8	65.5
O=C(O)c1ccc(OCC2CN(c3ccc(Br)cc3)C(=O)O2)cc1 (stereo not drawn) [Compound 93]	3.23	1.55	–	–
O=C(O)c1ccc(OCC2COC(=O)N2c2ccccc2)cc1 (stereo not drawn) [Compound 180, 4-(3-phenyl-2-oxooxazolidin-4-yl)methoxybenzoic acid]	7.1	33.7	–	–
O=C(O)c1ccc(OCC2CN(c3ccc(OC(F)(F)F)cc3)C(=O)O2)cc1 (stereo not drawn) [Compound 108]	–	–	50.4	83.0
O=C(O)c1ccc(OCC2CN(c3ccc([N+](=O)[O-])cc3)C(=O)O2)cc1 (stereo not drawn) [Compound 81, 4-[3-(4-nitrophenyl)-2-oxooxazolidin-5-yl]methoxybenzoic acid]	3.79	1.3	–	–
O=Cc1ccc(OCC2CN(c3ccc(Br)cc3F)C(=O)O2)cc1 (stereo not drawn) [Compound 8]	6.4	2.9	–	–

Further lines, with some results ahead:

IC50 [1] [µM]	IC50 [2] [µM]	Compound	Rate of decrease in total cholesterol in serum [3] [%]	Rate of decrease in triglyceride in serum [3] [%]
3.36	1.99	O=C(O)c1ccc(OC[C@H]2CN(c3ccc(Cl)cc3)C(=O)O2)cc1 [Compound 149]	–	–
29.5	14.8	Cc1ccc(CN2CC(COc3ccc(C(=O)O)cc3)OC2=O)cc1 (stereo not drawn) [Compound 130]	–	–
1.15	1.09	O=C(O)c1ccc(OC[C@@H]2CN(c3ccc(Cl)cc3)C(=O)O2)cc1 [Compound 165]	–	–
4.8	4	O=C1OC(COc2ccc(CCCO)cc2)CN1c1ccc(Cl)cc1 (stereo not drawn) [Compound 194, 3-{4-[3-(4-chlorophenyl)-2-oxooxazolidin-5-yl]methoxyphenyl}propyl alcohol]	–	–
34.5	9.81	O=C(O)c1ccc(OCC2CN(c3ccccc3)C(=S)O2)cc1 (stereo not drawn) [Compound 171, 4-(3-phenyl-2-oxazolidinethion-5-yl)methoxybenzoic acid]	–	–
17.4	5.7	O=C(O)/C=C/c1ccc(OCC2CN(c3ccc(Cl)cc3)C(=O)O2)cc1 (stereo not drawn) [Compound 183]	–	–
4.8	2.7	Cc1ccc(N2CC(COc3ccc(CO)cc3)OC2=O)cc1 (stereo not drawn) [Compound 175, 4-[3-(4-tolyl)-2-oxooxazolidin-5-yl]methoxybenzyl alcohol]	–	–
23.2	7.3	O=C1OC(COc2ccc(CCCO)cc2)CN1c1ccccc1 (stereo not drawn) [Compound 195, 3-[4-(3-phenyl-2-oxooxazolidin-5-yl)methoxyphenyl]propyl alcohol]	–	–
8.08	4.78	O=C(O)c1ccc(OC[C@H]2CN(c3ccc(C(F)(F)F)cc3)C(=O)O2)cc1 [Compound 147]	–	–
0.84	1.23	COc1ccc(N2C[C@@H](COc3ccc(C(=O)O)cc3)OC2=O)cc1 [Compound 164]	–	–
